The test system of test [1] is 1af (DNA, aptamer) ACCTGGGGGAGTATTGCGGAGGAAGGT
Description: fluorescence, structure-switching strand displacement. The following applies: 300 mM Na+, 5 mM Mg2+; 20 mM MOPS pH 7.4, 22 °C; 1 mM AMP; DABCYL strand 1q displaced.

Test [2] concerns 1bf (DNA, aptamer, artificial imidazole 2'-deoxyribonucleoside (Im) replacing C at 3 and G at 25 (Im:Im mispair)) ACCTGGGGGAGTATTGCGGAGGAAGGT
Described as above. As to conditions: 300 mM Na+, 5 mM Mg2+; 20 mM MOPS pH 7.4, 22 °C; 1 mM AMP; DABCYL strand 1q displaced.

The test system of test [3] is 1cf (DNA, aptamer, artificial imidazole 2'-deoxyribonucleoside (Im) replacing T at 4 and A at 24 (Im:Im mispair)) ACCTGGGGGAGTATTGCGGAGGAAGGT
Described as above. As to conditions: 300 mM Na+, 5 mM Mg2+; 20 mM MOPS pH 7.4, 22 °C; 1 mM AMP; DABCYL strand 1q displaced.

Test [4] deals with 1df (DNA, aptamer, artificial imidazole 2'-deoxyribonucleoside (Im) replacing G at 11 and C at 17 (Im:Im mispair)) ACCTGGGGGAGTATTGCGGAGGAAGGT
The test is described as above. The following applies: 300 mM Na+, 5 mM Mg2+; 20 mM MOPS pH 7.4, 22 °C; 1 mM AMP; DABCYL strand 1q displaced.

The test system of test [5] is 1a (DNA, aptamer) ACCTGGGGGAGTATTGCGGAGGAAGGT
The test can be described thus: fluorescence, structure-switching strand displacement (system B). The following applies: 300 mM Na+, 5 mM Mg2+; 20 mM MOPS pH 8.1, 22 °C; 1 mM AMP; strands 2f (fluorescein) and 2q (DABCYL) displaced.

Test [6] concerns 1af (DNA, aptamer) ACCTGGGGGAGTATTGCGGAGGAAGGT
The test can be described thus: elution from ATP-agarose column. As to conditions: 300 mM Na+, 5 mM Mg2+; 20 mM MOPS pH 7.4; 3 mM GMP; no elution of aptamer from immobilised ATP.

Test [7] concerns 1bf (DNA, aptamer, artificial imidazole 2'-deoxyribonucleoside (Im) replacing C at 3 and G at 25 (Im:Im mispair)) ACCTGGGGGAGTATTGCGGAGGAAGGT
Description: elution from ATP-agarose column. As to conditions: 300 mM Na+, 5 mM Mg2+; 20 mM MOPS pH 7.4; 3 mM GMP; no elution of aptamer from immobilised ATP.

Test [8] deals with 1cf (DNA, aptamer, artificial imidazole 2'-deoxyribonucleoside (Im) replacing T at 4 and A at 24 (Im:Im mispair)) ACCTGGGGGAGTATTGCGGAGGAAGGT
The test can be described thus: elution from ATP-agarose column. The following applies: 300 mM Na+, 5 mM Mg2+; 20 mM MOPS pH 7.4; 3 mM GMP; no elution of aptamer from immobilised ATP.

Test [9] relates to 1df (DNA, aptamer, artificial imidazole 2'-deoxyribonucleoside (Im) replacing G at 11 and C at 17 (Im:Im mispair)) ACCTGGGGGAGTATTGCGGAGGAAGGT
Description: elution from ATP-agarose column. The following applies: 300 mM Na+, 5 mM Mg2+; 20 mM MOPS pH 7.4; 3 mM GMP; no elution of aptamer from immobilised ATP.

With `Nc1ncnc2c1ncn2[C@@H]1O[C@H](COP(=O)(O)O)[C@@H](O)[C@H]1O`, the binding entry in test [1] is given as “yes”; in test [2] it was “yes”; in test [3], “yes”; in test [4], “weak”; in test [5], “yes”.

For `Nc1nc2c(ncn2[C@@H]2O[C@H](COP(=O)(O)O)[C@@H](O)[C@H]2O)c(=O)[nH]1`, the binding result in test [6], in test [7], in test [8] and in test [9] was “no” each time.
